According to PubChem BioAssay AID1963852 (Molecular Pharmacology Branch, DTP, NCI, 2024):

Test system: 282377-053-R-J1-PDC complex spheroid viability
Experiment: Anticancer human tumor 282377-053-R-J1-PDC patient-derived colon adenocarcinoma cell line growth inhibition [POLQ]
Settings: for IC50: curve of first compound; for viability, T/C: stronger effect = lower value
Method in brief: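 Growth inhibition in 3D: complex spheroids (tumor PDC, HUVEC, MSC) treated with POLQ inhibitor combinations; where Cmax unknown, highest tested concentration 10 microM, except SN-38 at 1 microM.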

[1] = second compound 0.0316 µM, first compound 0.0316 µM
[2] = second compound 0.0316 µM, first compound 0.1 µM
[3] = second compound 0.0316 µM, first compound 0.316 µM
[4] = second compound 0.0316 µM, first compound 1 µM
[5] = second compound 0.0316 µM, first compound 3.16 µM
[6] = second compound 0.0316 µM, first compound 10 µM
[7] = second compound 0.1 µM, first compound 0.0316 µM
[8] = second compound 0.1 µM, first compound 0.1 µM
[9] = second compound 0.1 µM, first compound 0.316 µM
[10] = second compound 0.1 µM, first compound 1 µM
[11] = second compound 0.1 µM, first compound 3.16 µM
[12] = second compound 0.1 µM, first compound 10 µM
[13] = second compound 0.316 µM, first compound 0.0316 µM
[14] = second compound 0.316 µM, first compound 0.1 µM
[15] = second compound 0.316 µM, first compound 0.316 µM
[16] = second compound 0.316 µM, first compound 1 µM
[17] = second compound 0.316 µM, first compound 3.16 µM
[18] = second compound 0.316 µM, first compound 10 µM
[19] = second compound 1 µM, first compound 0.0316 µM
[20] = second compound 1 µM, first compound 0.1 µM
[21] = second compound 1 µM, first compound 0.316 µM
[22] = second compound 1 µM, first compound 1 µM
[23] = second compound 1 µM, first compound 3.16 µM
[24] = second compound 1 µM, first compound 10 µM
[25] = second compound 3.16 µM, first compound 0.0316 µM
[26] = second compound 3.16 µM, first compound 0.1 µM
[27] = second compound 3.16 µM, first compound 0.316 µM
[28] = second compound 3.16 µM, first compound 1 µM
[29] = second compound 3.16 µM, first compound 3.16 µM
[30] = second compound 3.16 µM, first compound 10 µM
[31] = second compound 10 µM, first compound 0.0316 µM
[32] = second compound 10 µM, first compound 0.1 µM
[33] = second compound 10 µM, first compound 0.316 µM
[34] = second compound 10 µM, first compound 1 µM
[35] = second compound 10 µM, first compound 3.16 µM
[36] = second compound 10 µM, first compound 10 µM
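Further: spheroids exposed to compounds for seven days.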
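Wherever viability, T/C is given: 100% = DMSO vehicle control viability.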

## CC1COCCN1c1cc(C2(O)CC3CCC(C2)O3)c2cnn(-c3ccn[nH]3)c2n1 (stereo not drawn) + Nc1ccc(C#CCN(C(=O)Cc2ncc(C(F)(F)F)cc2C(F)(F)F)c2ccc(F)cc2)nn1
Second compound 0.0316 µM
  IC50: 1.98 µM
Second compound 0.1 µM
  IC50: 0.588 µM
Second compound 0.316 µM
  IC50: 1.29 µM
Second compound 1 µM
  IC50: 0.73 µM
Second compound 3.16 µM
  IC50: 1.18 µM
Second compound 10 µM
  IC50: 1.08 µM
[1]
  viability, T/C: 83.8%
[2]
  viability, T/C: 75.4%
[3]
  viability, T/C: 67.5%
[4]
  viability, T/C: 53.3%
[5]
  viability, T/C: 47.8%
[6]
  viability, T/C: 40.5%
[7]
  viability, T/C: 89.3%
[8]
  viability, T/C: 89.3%
[9]
  viability, T/C: 57.3%
[10]
  viability, T/C: 48.7%
[11]
  viability, T/C: 43.3%
[12]
  viability, T/C: 36.4%
[13]
  viability, T/C: 107%
[14]
  viability, T/C: 84.6%
[15]
  viability, T/C: 63.9%
[16]
  viability, T/C: 50.6%
[17]
  viability, T/C: 46.5%
[18]
  viability, T/C: 36.3%
[19]
  viability, T/C: 97.6%
[20]
  viability, T/C: 83.9%
[21]
  viability, T/C: 71%
[22]
  viability, T/C: 38.3%
[23]
  viability, T/C: 44.4%
[24]
  viability, T/C: 43.6%
[25]
  viability, T/C: 92.3%
[26]
  viability, T/C: 75.7%
[27]
  viability, T/C: 65.6%
[28]
  viability, T/C: 47.6%
[29]
  viability, T/C: 45.9%
[30]
  viability, T/C: 40.8%
[31]
  viability, T/C: 97.3%
[32]
  viability, T/C: 77.2%
[33]
  viability, T/C: 62.8%
[34]
  viability, T/C: 49.3%
[35]
  viability, T/C: 44%
[36]
  viability, T/C: 40.1%

## CCc1cc2c(N3CCc4c(cc(Cn5ccnc5)cc4-c4cn(C)nc4C(F)(F)F)C3=O)cc(C)nc2c(OC)n1 + Nc1ccc(C#CCN(C(=O)Cc2ncc(C(F)(F)F)cc2C(F)(F)F)c2ccc(F)cc2)nn1
Second compound 0.0316 µM
  IC50: > 10 µM
Second compound 0.1 µM
  IC50: > 10 µM
Second compound 0.316 µM
  IC50: > 10 µM
Second compound 1 µM
  IC50: > 10 µM
Second compound 3.16 µM
  IC50: > 10 µM
Second compound 10 µM
  IC50: > 10 µM
[1]
  viability, T/C: 83%
[2]
  viability, T/C: 81.5%
[3]
  viability, T/C: 89%
[4]
  viability, T/C: 98.2%
[5]
  viability, T/C: 120%
[6]
  viability, T/C: 99.3%
[7]
  viability, T/C: 84.8%
[8]
  viability, T/C: 82.8%
[9]
  viability, T/C: 82.3%
[10]
  viability, T/C: 75.1%
[11]
  viability, T/C: 93.4%
[12]
  viability, T/C: 115%
[13]
  viability, T/C: 96.6%
[14]
  viability, T/C: 86.2%
[15]
  viability, T/C: 89.4%
[16]
  viability, T/C: 82.3%
[17]
  viability, T/C: 95.9%
[18]
  viability, T/C: 96.1%
[19]
  viability, T/C: 82.1%
[20]
  viability, T/C: 88.7%
[21]
  viability, T/C: 79.8%
[22]
  viability, T/C: 96%
[23]
  viability, T/C: 96.7%
[24]
  viability, T/C: 107%
[25]
  viability, T/C: 95.6%
[26]
  viability, T/C: 91.3%
[27]
  viability, T/C: 85%
[28]
  viability, T/C: 106%
[29]
  viability, T/C: 90.5%
[30]
  viability, T/C: 108%
[31]
  viability, T/C: 108%
[32]
  viability, T/C: 102%
[33]
  viability, T/C: 125%
[34]
  viability, T/C: 107%
[35]
  viability, T/C: 113%
[36]
  viability, T/C: 115%

## CCc1cc2c(N3CCc4c(cc(Cn5ccnc5)cc4-c4cn(C)nc4C(F)(F)F)C3=O)ccnc2c(OC)n1 + Nc1ccc(C#CCN(C(=O)Cc2ncc(C(F)(F)F)cc2C(F)(F)F)c2ccc(F)cc2)nn1
Second compound 0.0316 µM
  IC50: > 10 µM
Second compound 0.1 µM
  IC50: > 10 µM
Second compound 0.316 µM
  IC50: > 10 µM
Second compound 1 µM
  IC50: > 10 µM
Second compound 3.16 µM
  IC50: > 10 µM
Second compound 10 µM
  IC50: > 10 µM
[1]
  viability, T/C: 92.7%
[2]
  viability, T/C: 98.8%
[3]
  viability, T/C: 102%
[4]
  viability, T/C: 106%
[5]
  viability, T/C: 94.1%
[6]
  viability, T/C: 111%
[7]
  viability, T/C: 75.9%
[8]
  viability, T/C: 73.9%
[9]
  viability, T/C: 72.2%
[10]
  viability, T/C: 77.1%
[11]
  viability, T/C: 107%
[12]
  viability, T/C: 115%
[13]
  viability, T/C: 90.3%
[14]
  viability, T/C: 78.8%
[15]
  viability, T/C: 86.3%
[16]
  viability, T/C: 90.1%
[17]
  viability, T/C: 111%
[18]
  viability, T/C: 87.4%
[19]
  viability, T/C: 104%
[20]
  viability, T/C: 75.7%
[21]
  viability, T/C: 84.1%
[22]
  viability, T/C: 90.5%
[23]
  viability, T/C: 102%
[24]
  viability, T/C: 108%
[25]
  viability, T/C: 103%
[26]
  viability, T/C: 92.7%
[27]
  viability, T/C: 88.8%
[28]
  viability, T/C: 109%
[29]
  viability, T/C: 96.7%
[30]
  viability, T/C: 123%
[31]
  viability, T/C: 95.5%
[32]
  viability, T/C: 106%
[33]
  viability, T/C: 113%
[34]
  viability, T/C: 108%
[35]
  viability, T/C: 138%
[36]
  viability, T/C: 127%

## O=C(Nc1ccc(O)c(NS(=O)(=O)c2ccc(F)cc2)c1)c1ccc(-c2ccccc2)cc1 + Nc1ccc(C#CCN(C(=O)Cc2ncc(C(F)(F)F)cc2C(F)(F)F)c2ccc(F)cc2)nn1
Second compound 0.0316 µM
  IC50: > 10 µM
Second compound 0.1 µM
  IC50: > 10 µM
Second compound 0.316 µM
  IC50: > 10 µM
Second compound 1 µM
  IC50: > 10 µM
Second compound 3.16 µM
  IC50: > 10 µM
Second compound 10 µM
  IC50: > 10 µM
[1]
  viability, T/C: 92.8%
[2]
  viability, T/C: 115%
[3]
  viability, T/C: 98.1%
[4]
  viability, T/C: 102%
[5]
  viability, T/C: 97.9%
[6]
  viability, T/C: 107%
[7]
  viability, T/C: 93.1%
[8]
  viability, T/C: 107%
[9]
  viability, T/C: 100%
[10]
  viability, T/C: 97.2%
[11]
  viability, T/C: 104%
[12]
  viability, T/C: 103%
[13]
  viability, T/C: 96.9%
[14]
  viability, T/C: 101%
[15]
  viability, T/C: 112%
[16]
  viability, T/C: 95.4%
[17]
  viability, T/C: 100%
[18]
  viability, T/C: 99.8%
[19]
  viability, T/C: 96.5%
[20]
  viability, T/C: 95.5%
[21]
  viability, T/C: 98.7%
[22]
  viability, T/C: 109%
[23]
  viability, T/C: 87.1%
[24]
  viability, T/C: 100%
[25]
  viability, T/C: 113%
[26]
  viability, T/C: 113%
[27]
  viability, T/C: 103%
[28]
  viability, T/C: 100%
[29]
  viability, T/C: 109%
[30]
  viability, T/C: 117%
[31]
  viability, T/C: 124%
[32]
  viability, T/C: 108%
[33]
  viability, T/C: 109%
[34]
  viability, T/C: 133%
[35]
  viability, T/C: 110%
[36]
  viability, T/C: 139%
